According to patent US9744250B2, “Chemical model of a neurodegenerative disease, method for preparation and uses of same” (priority 2012, dated 2017):

Experiments:
α-synuclein = assay: Cellular accumulation of α-synuclein (Western blot) in SH-SY5Y cells; type: cell-based, human; conditions: 1 mM, 96 h incubation
Method: Cells were incubated under the same conditions as above with furosemide pyridinium (1 mM, incubation: 96 h) and MPP+ (1 mM, incubation: 6 h, wait 24 h). After incubation, the cells were trypsinized, rinsed with PBS, counted, then harvested in 100 μl of buffer containing: 250 mM sucrose; 70 mM KCl; 137 mm NaCl; 4.3 mm NaH2PO4; 1.4 mm KH2PO4, pH 7.2; and […] digitonin. Incubation at 4° C. was then conducted for 5 minutes before centrifuging at 13,000 g for 5 minutes to separate the cytosolic and lysosomal fraction from the mitochondrial fraction. Deposits of cytosolic fraction in the Western blot were adjusted according to the number of cells. The protein samples were diluted in 4× Laemmli and were then heated for 3 minutes at 95° C. to denature. They were loaded into the wells of gel. In addition to the samples, a molecular weight marker (Fermentas) was deposited in the gel. […] The transfer was carried out on PVDF membrane. The transfer was done in transfer buffer (25 mM Tris, 192 mM glycine, 10% methanol) overnight at 4° C. and 30V or for 2 hours at 4° C. and 80V. […] Then the membranes were immunolabeled for 1.5 h at room temperature with a primary antibody diluted in 1×PBS/0.2% Tween/3% milk. […] The primary antibody used was anti-α-synuclein, 1:500 (visualized with an anti-rabbit secondary antibody, 1:10,000).

[1] = test system: mitochondria isolated from rat cerebral cortex; assay: Respiratory control (oxygen consumption, malate/pyruvate) of isolated cerebral cortex mitochondria; type: biochemical; conditions: increasing concentration
Method: (§1) The animal was then decapitated in order to collect from the brain either the cortex or the striatum, which were quickly placed in a Potter Elvejhem® containing 6 ml of extraction buffer at 4° C. (250 mM sucrose, 40 mM KCl, 2 mM EGTA, lmg/ml BSA, 20 mM Tris, pH=7.2). This mixture was homogenized to break open the cells and release the mitochondria and then centrifuged at 2000 g for 8 minutes to remove the larger membrane debris and the nuclei from the pellet. The supernatant was then recovered and centrifuged at 13,000 g for 11 minutes. The supernatant was discarded while the pellet containing a mitochondria-rich fraction was resuspended in 500 μl of respiration buffer at 4° C. (300 mM D-mannitol, 10 mM KCl, 10 mM KH2PO4, 5 mM MgCl2, pH=7.2). […]
(§2) Added to the polarography chamber (Hansatech) were 30 μl of mitochondria solution (0.2 mg), 460 μL of respiration buffer, 5 μl of test compound solution (meaning MPP+ or furosemide pyridinium) (or its solubilizing solvent). […] The effect of the compound on respiratory control was evaluated (ratio of stage 3 to 4), which corresponds to the coupling of the respiratory chain, or in other words the ATP synthesis at complex V and the oxygen consumption due to complexes I to IV. The results are expressed as percentages of the value measured for mitochondria not treated with the test compound (but treated with the solubilizing solvent).

[2] = test system: mitochondria isolated from rat striatum; assay: Respiratory control (oxygen consumption) of isolated striatum mitochondria; type: biochemical
Method: as §1, §2

[3] = test system: alpha-synuclein in the striata; assay: Immunolabeling of alpha-synuclein in coronal striatum sections of exposed rats; type: in vivo, rat; conditions: 20 mg/kg/day oral 7 days, sacrificed 5 weeks after last dose
Description: (§3) Male albino Sprague Dawley rats (adults weighing […]) were housed in a temperature-controlled room with free access to food and water.
A platform for electrophysiological and behavioral monitoring of the rats was used. For this, a subcutaneous implant (Data Science) was placed in the rats which allowed the EEG to be recorded by telemetry, leaving the animal completely free to move about. The cage was equipped with a video camera (10 frames per second) and an infrared light to allow recordation of the animal's activity. The EEG and video sequences were recorded in sequences of 10 seconds, and a set of variables was calculated for each sequence. The use of dedicated software allowed integration of these variables over the entire recording to detect changes in the animal's activity, EEG, and circadian rhythms. Each animal served as its own control because it was recorded for 5 days prior to furosemide pyridinium administration. The solution of furosemide pyridinium (20 mg) was dissolved in dimethylsulfoxide (DMSO, 200 μl) and then diluted with water (50 ml). The solution was replaced every day and administered for 7 days in the drinking water at a dose of 20 mg/kg. The rats were then sacrificed 5 weeks after the last dose. The rats were anesthetized with pentobarbital and infused intracardially with saline ([…]), then fixed with 4% paraformaldehyde. […]

Sprague Dawley rats = assay: EEG and sleep/arousal telemetry monitoring of exposed rats; type: in vivo, rat; conditions: 20 mg/kg/day oral 7 days
Description: as §3
(§4) A platform for electrophysiological and behavioral monitoring of the rats was used. For this, a subcutaneous implant (Data Science) was placed in the rats which allowed the EEG to be recorded by telemetry, leaving the animal completely free to move about. The cage was equipped with a video camera (10 frames per second) and an infrared light to allow recordation of the animal's activity. The EEG and video sequences were recorded in sequences of 10 seconds, and a set of variables was calculated for each sequence. The use of dedicated software allowed integration of these variables over the entire recording to detect changes in the animal's activity, EEG, and circadian rhythms. Each animal served as its own control because it was recorded for 5 days prior to furosemide pyridinium administration. The solution of furosemide pyridinium (20 mg) was dissolved in dimethylsulfoxide (DMSO, 200 μl) and then diluted with water (50 ml). The solution was replaced every day and administered for 7 days in the drinking water at a dose of 20 mg/kg. The rats were then sacrificed 5 weeks after the last dose. The rats were anesthetized with pentobarbital and infused intracardially with saline ([…]), then fixed with 4% paraformaldehyde. After the infusion, the brain was removed and placed in NaCl (0.9%) at 4° C. The brain was frozen in Tissue Tek immersed in a cold isopentane bath. Coronal sections of eight microns were obtained using a cryostat and were processed for immunocytochemistry (labeling the alpha-synuclein).

tyrosine hydroxylase = assay: Immunohistochemistry of tyrosine hydroxylase in exposed mice; type: in vivo, mouse; conditions: 20 mg/kg/day oral 7 days, 30 days after end of exposure
Method: Swiss mice were divided into two groups of five animals (experimental and control). The experiments were performed independently two times. The mice of the experimental group were exposed to furosemide pyridinium for 7 days at a daily dose of 20 mg/kg. The furosemide pyridinium was administered orally in the drinking water. The mice were sacrificed 30 days after the end of the furosemide pyridinium treatment.
For this, the mice were anesthetized with pentobarbital (50 mg/Kg), then an intracardiac infusion of NaCl (0.9%) was administered, followed by fixation by an infusion of 4% paraformaldehyde in 0.1M phosphate buffer, pH 7.2. The brain was removed, placed in NaCl (0.9%) at 4° C., and frozen in Tissue Tek immersed in a cold isopentane bath. Coronal sections of eight microns were obtained using a cryostat and were processed for immunohistochemistry (labeling the tyrosine hydroxylase and the Ser129-phosphorylated alpha-synuclein).

rats = assay: Lethality of 7-day oral administration in rats; type: in vivo, rat; conditions: daily dose of 20 mg/kg for seven days
Method: as §4, with “Coronal sections of eight microns were obtained using a cryostat and were processed for immunocytochemistry (labeling the alpha-synuclein).” left out

## NS(=O)(=O)c1cc(C(=O)[O-])c(-[n+]2cccc(O)c2)cc1Cl [furosemide pyridinium, 4-chloro-2-(3-hydroxypyridinium-1-yl)-5-sulfamoylbenzoate]
α-synuclein
  increase in the total amount of α-synuclein compared to control cells: 40%
[1]
  respiratory control of cerebral cortex mitochondria induced by malate/pyruvate: diminished
[2]; comparison striatum vs cortex
  effect on striatal mitochondria versus cortex mitochondria: greater on striatal mitochondria
[2]; dose-response
  oxygen consumption of striatum mitochondria: decrease in oxygen consumption
[3]
  alpha-synuclein in the striata (immunolabeling): significant increase
Sprague Dawley rats; five weeks after end of exposure
  increase in number of REM sleep phases: 2 ×
Sprague Dawley rats; five weeks after end of treatment
  sleep and arousal phases: do not indicate changes
Sprague Dawley rats; five weeks after end of treatment vs before exposure
  amplitude of the electroencephalogram: significant decrease
Tyrosine hydroxylase
  labeling of tyrosine hydroxylase in the striata: net reduction
rats
  lethality: not lethal
